From publication PMC9230784, “Development of a Novel Class of Pyridazinone Derivatives as Selective MAO-B Inhibitors” (Molecules, 2022)
Entries after “also recorded” stand apart in the source; their conditions may differ. Where two headings read alike, the source gives them in different places.

Columns and labels:
Recombinant human MAO-A = target: T1, Recombinant human MAO-A (Homo sapiens, UniProt P21397); experiment: biochemical; conditions: for remaining activity at 10 µM: 10 µM compound, mean ± standard error of duplicate or triple studies, read-out: Residual Activity at 10 µM (%) MAO-A
T1 construct: purchased Sigma-Aldrich (St. Louis, MO, USA)
T1 sequence (P21397 1-527): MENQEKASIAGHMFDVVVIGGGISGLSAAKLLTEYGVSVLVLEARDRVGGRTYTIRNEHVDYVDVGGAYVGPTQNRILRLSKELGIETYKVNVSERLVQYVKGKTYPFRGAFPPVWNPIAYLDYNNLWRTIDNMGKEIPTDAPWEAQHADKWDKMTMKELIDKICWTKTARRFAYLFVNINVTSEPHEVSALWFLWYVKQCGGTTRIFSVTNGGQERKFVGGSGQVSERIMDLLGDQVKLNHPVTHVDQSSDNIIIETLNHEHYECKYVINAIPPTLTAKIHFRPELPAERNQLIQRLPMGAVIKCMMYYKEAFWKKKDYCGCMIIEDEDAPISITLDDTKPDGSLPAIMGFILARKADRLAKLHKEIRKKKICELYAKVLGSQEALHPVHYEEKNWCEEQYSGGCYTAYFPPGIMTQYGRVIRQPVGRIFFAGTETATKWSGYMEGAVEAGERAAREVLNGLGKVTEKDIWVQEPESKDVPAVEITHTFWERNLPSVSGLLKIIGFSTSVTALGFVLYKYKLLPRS
Protocol: (§1) The IC50 values were determined by measuring the residual activity at different concentrations of the compounds and by using GraphPad Prism software 5.0. […] BACE1 inhibitory activities were tested by the BACE1 activity detection kit. The assay method was described previously. Recombinant human MAO-A and MAO-B, AChE from Electrophorus electricus, BChE from equine serum, BACE1, and their substrates and reference inhibitors were purchased from Sigma-Aldrich (St. Louis, MO, USA).
(§2) Lineweaver–Burk plots were used to examine the inhibition patterns, and secondary plots were used to calculate the Ki values with three inhibitor dosages.

MAO-B [1] = target: T2, MAO-B (Homo sapiens, UniProt P27338); experiment: biochemical; type: biochemical; conditions: for remaining activity at 10 µM: 10 µM compound, mean ± standard error of duplicate or triple studies, read-out: Residual Activity at 10 µM (%) MAO-B; for SI (selectivity index for MAO-B compared with MAO-A): MAO-B versus MAO-A
T2 construct: purchased Sigma-Aldrich (St. Louis, MO, USA)
T2 sequence (P27338 1-520): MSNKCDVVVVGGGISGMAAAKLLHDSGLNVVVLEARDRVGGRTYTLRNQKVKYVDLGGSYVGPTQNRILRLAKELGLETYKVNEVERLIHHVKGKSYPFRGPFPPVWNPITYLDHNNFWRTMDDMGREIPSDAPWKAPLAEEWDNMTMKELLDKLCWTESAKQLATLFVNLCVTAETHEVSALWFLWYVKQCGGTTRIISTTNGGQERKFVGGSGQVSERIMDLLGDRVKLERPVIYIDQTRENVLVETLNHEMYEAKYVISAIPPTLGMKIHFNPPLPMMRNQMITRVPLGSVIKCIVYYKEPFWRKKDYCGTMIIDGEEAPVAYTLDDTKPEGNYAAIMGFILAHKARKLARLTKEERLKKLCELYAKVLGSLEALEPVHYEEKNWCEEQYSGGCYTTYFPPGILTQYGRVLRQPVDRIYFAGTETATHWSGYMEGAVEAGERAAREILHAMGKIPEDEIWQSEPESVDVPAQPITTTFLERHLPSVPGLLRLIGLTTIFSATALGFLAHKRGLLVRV
Protocol: as §1, with “USA). […]” for “USA).”

MAO-B [2] = target: T2, MAO-B; experiment: Kinetic study, Lineweaver–Burk and secondary plots; type: biochemical
Description: Five different substrate concentrations were used in the kinetics.
as §2

MAO-B [3] = target: T2, MAO-B; experiment: Inhibition reversibility by dialysis; type: biochemical
Description: The relative activity of undialyzed (AU) as well as dialyzed (AD) samples were compared to establish reversibility profiles.
To determine reversibility patterns, the activities of dialyzed (AD) and undialyzed (AU) specimens were compared.

in vitro = conditions: PAMPA
[4] = kynuramine 0.06 mM, highest concentration 40 µM, read-out: IC50 (µM) MAO-A
[5] = benzylamine 0.3 mM, highest concentration 40 µM, read-out: IC50 (µM) MAO-B

## O=C(Cn1nc(N2CCN(c3cccc(C(F)(F)F)c3)CC2)ccc1=O)NN=Cc1ccccc1 [TR7]
Recombinant human MAO-A
  remaining activity at 10 µM: 55.4 ± 0.84%
Recombinant human MAO-A; [4]
  IC50: 14.4 ± 3.55 µM
MAO-B [1]
  remaining activity at 10 µM: 90.7 ± 6.64%
  SI (selectivity index for MAO-B compared with MAO-A): <0.36
MAO-B [1]; [5]
  IC50: > 40 µM

## O=C(Cn1nc(N2CCN(c3cccc(C(F)(F)F)c3)CC2)ccc1=O)NN=Cc1ccc(Cl)cc1 [TR8]
Recombinant human MAO-A
  remaining activity at 10 µM: 52.9 ± 0.82%
Recombinant human MAO-A; [4]
  IC50: 12 ± 1.75 µM
MAO-B [1]
  remaining activity at 10 µM: 69.1 ± 0.95%
  SI (selectivity index for MAO-B compared with MAO-A): 0.60
MAO-B [1]; [5]
  IC50: 20 µM

## O=C(Cn1nc(N2CCN(c3cccc(C(F)(F)F)c3)CC2)ccc1=O)NN=Cc1ccc(F)cc1 [TR9]
Recombinant human MAO-A
  remaining activity at 10 µM: 72.28 ± 0.4%
Recombinant human MAO-A; [4]
  IC50: 17.1 ± 0.21 µM
MAO-B [1]
  remaining activity at 10 µM: 46.5 ± 4.93%
  SI (selectivity index for MAO-B compared with MAO-A): 17.08
MAO-B [1]; [5]
  IC50: 1 ± 0.15 µM

## COc1ccc(C=NNC(=O)Cn2nc(N3CCN(c4cccc(C(F)(F)F)c4)CC3)ccc2=O)cc1 [TR10]
Recombinant human MAO-A
  remaining activity at 10 µM: 56 ± 2.26%
Recombinant human MAO-A; [4]
  IC50: 13.3 ± 1.81 µM
MAO-B [1]
  remaining activity at 10 µM: 91.9 ± 7.09%
  SI (selectivity index for MAO-B compared with MAO-A): <0.33
MAO-B [1]; [5]
  IC50: > 40 µM

## Cc1ccc(C=NNC(=O)Cn2nc(N3CCN(c4cccc(C(F)(F)F)c4)CC3)ccc2=O)cc1 [TR11]
Recombinant human MAO-A
  remaining activity at 10 µM: 55.6 ± 2.28%
Recombinant human MAO-A; [4]
  IC50: 18.5 ± 5.83 µM
MAO-B [1]
  remaining activity at 10 µM: 83.87 ± 0.56%
  SI (selectivity index for MAO-B compared with MAO-A): 0.57
MAO-B [1]; [5]
  IC50: 32 ± 1.21 µM

## CN(C)c1ccc(C=NNC(=O)Cn2nc(N3CCN(c4cccc(C(F)(F)F)c4)CC3)ccc2=O)cc1 [TR12]
Recombinant human MAO-A
  remaining activity at 10 µM: 52.5 ± 1.77%
Recombinant human MAO-A; [4]
  IC50: 14.7 ± 2.96 µM
MAO-B [1]
  remaining activity at 10 µM: 85.3 ± 1.59%
  SI (selectivity index for MAO-B compared with MAO-A): <0.37
MAO-B [1]; [5]
  IC50: > 40 µM

## O=C(Cn1nc(N2CCN(c3cccc(C(F)(F)F)c3)CC2)ccc1=O)NN=Cc1ccc(Br)cc1 [TR13]
Recombinant human MAO-A
  remaining activity at 10 µM: 74.2 ± 6.43%
Recombinant human MAO-A; [4]
  IC50: 31 ± 4.33 µM
MAO-B [1]
  remaining activity at 10 µM: 100 ± 5.43%
  SI (selectivity index for MAO-B compared with MAO-A): <0.78
MAO-B [1]; [5]
  IC50: > 40 µM

## O=C(Cn1nc(N2CCOCC2)ccc1=O)NN=Cc1ccccc1 [TR14]
Recombinant human MAO-A
  remaining activity at 10 µM: 97.47 ± 0.71%
Recombinant human MAO-A; [4]
  IC50: > 40 µM
MAO-B [1]
  remaining activity at 10 µM: 107 ± 2.01%
MAO-B [1]; [5]
  IC50: > 40 µM

## O=C(Cn1nc(N2CCOCC2)ccc1=O)NN=Cc1ccc(F)cc1 [TR15]
Recombinant human MAO-A
  IC50: > 40 µM
  remaining activity at 10 µM: 85.6 ± 1.04%
MAO-B [1]
  IC50: 0.43 ± 0.05 µM
  remaining activity at 10 µM: 12.5 ± 3.54%

## O=C(Cn1nc(N2CCOCC2)ccc1=O)NN=Cc1ccc(Cl)cc1 [TR16]
Recombinant human MAO-A
  IC50: > 40 µM
  remaining activity at 10 µM: 85 ± 3.08%
MAO-B [1]
  IC50: 0.17 ± 0.04 µM
  remaining activity at 10 µM: 13.1 ± 0.64%
MAO-B [1]; versus TR2
  Fold higher IC50 for MAO-B than TR2: 1.59 fold
MAO-B [1]; versus TR14
  Times higher MAO-B inhibitory activity over the basic structure TR14: 235.3 times
MAO-B [1]; versus TR15
  Times higher MAO-B inhibitory activity over TR15: 2.5 times
MAO-B [2]
  Ki: 0.149 ± 0.016 µM
MAO-B [2]; Lineweaver–Burk plots
  Inhibition type for MAO-B: competitive inhibitors
MAO-B [3]; dialysis, AU versus AD
  Reversibility of MAO-B inhibition: reversible inhibitors
MAO-B [3]; preincubation 30 min at ~2 × IC50, dialyzed
  Relative activity of dialyzed (AD) sample: 73.4%
MAO-B [3]; preincubation 30 min at ~2 × IC50, undialyzed
  Relative activity of undialyzed (AU) sample: 31.8%
PAMPA
  BBB permeation in words: tendency to traverse the blood–brain barrier; also recorded: good CNS permeabilities
PAMPA-BBB
  Prediction (BBB permeation class): CNS+ (CNS+, Pe (10^−6 cm/s) >4, good BBB permeable)
In vitro
  Papp: 10.6 ± 0.26 ×10⁻⁶ cm/s
